Two compounds from publication PMC7700029, “Repurposing Napabucasin as an Antimicrobial Agent against Oral Streptococcal Biofilms” (BioMed Research International, 2020) can be followed below.

In assay [1] the test system is oral streptococcal multispecies biofilms. Kind of assay: Multispecies biofilm composition by FISH and qPCR. The assay is classed as cell-based, S. mutans, S. gordonii, S. sanguinis. The conditions noted are these: 62.5 μg/mL NAP, 5 min three times per day for 3 days; for total amount of streptococci: 0.2% CHX. How it is done: The multispecies biofilms were cultivated in accordance with a previous study. Overnight cultures of S. mutans, S. gordonii, and S. sanguinis were simultaneously inoculated (inoculum ratio = 1 : 1 : 1). The chemotaxis chamber μ-Slide, which has extremely low values of birefringence and autofluorescence, was used for bacterial culture and confocal microscopy. Bacterial suspensions (1 × 10^5CFU/mL for each strain) were mixed in 300 μL BHI containing 1% sucrose (BHIS) in the μ-Slide (8 wells, 80826, Ibidi) at 37°C for 24 h. Then, biofilms were exposed to PBS, 62.5 μg/mL NAP, and 0.2% CHX for 3 days (5 min, three times per day). This short-term repeated treatment was to simulate the daily exposure to the mouth rinses. For fluorescent in situ hybridization imaging, biofilms were fixed in 4% paraformaldehyde overnight and investigated by species-specific probes. The multispecies biofilms were imaged with a confocal laser scanning microscope (FV1000, Olympus, Tokyo, Japan). Total DNA of biofilms were isolated and purified using a TIANamp Bacteria DNA kit (TIANGEN, Beijing, China). The purity and concentration of DNA were detected with a NanoDrop 2000 spectrophotometer (Thermo Scientific, Waltham, MA, USA). The extracts were stored at -20°C until use. TaqMan real-time polymerase chain reaction (Life Technologies, Carlsbad, CA, USA) was used to quantify the absolute number of S. mutans, S. gordonii, and S. sanguinis as described by the manufacturer (Takara, Dalian, China).
A general note: Real-time PCR tracks product formation cycle by cycle.

The test system of a further assay is S. gordonii biofilm. The assay can be described thus: Biofilm formation inhibition, crystal violet (MBIC). The conditions noted are these: 24 h, 90% or more inhibition of biofilm formation. The class given is cell-based, Streptococcus gordonii. How it is done:
(§1) The minimum biofilm inhibition concentration (MBIC) was used to evaluate the effect of NAP on biofilm formation. S. mutans, S. gordonii, or S. sanguinis (1 × 10^7CFU/mL, 10 μL/well) were grown in BHIS with twofold serial dilution of NAP (200 μL/well) ranging from 0.12 to 125 μg/mL at 37°C for 24 h. A parallel study was also performed with BHIS as a negative control. Then, the supernatants from the wells were decanted, and the adherent biofilm was washed three times with PBS to remove the planktonic cells. Fixed with methanol for 15 min and air-dried at room temperature, the biofilm was stained with 0.1% (wt/vol) crystal violet (Sigma) for 5 min, rinsed with deionized water until blank control wells were colorless, and added 200 μL of 95% ethanol to each crystal violet-stained well. Subsequently, the plate was rocked 30 min at room temperature, and the absorbance at 595 nm was recorded. The percentage of inhibition was calculated using the equation: (A595ofnegativecontrol − A595ofthetestgroup)/A595ofnegativecontrol × 100%.

Assay [2] has as its system oral streptococcal multispecies biofilms. The assay can be described thus: Multispecies biofilm imaging (dead/live, EPS staining, CLSM). The conditions noted are these: 5 min three times per day for 3 days; for structural integrity of multispecies biofilms: 0.2% CHX. The class given is cell-based, S. mutans, S. gordonii, S. sanguinis. As for the experimental part:
The multispecies biofilms were cultivated in accordance with a previous study. Overnight cultures of S. mutans, S. gordonii, and S. sanguinis were simultaneously inoculated (inoculum ratio = 1 : 1 : 1). The chemotaxis chamber μ-Slide, which has extremely low values of birefringence and autofluorescence, was used for bacterial culture and confocal microscopy. Bacterial suspensions (1 × 10^5CFU/mL for each strain) were mixed in 300 μL BHI containing 1% sucrose (BHIS) in the μ-Slide (8 wells, 80826, Ibidi) at 37°C for 24 h. Then, biofilms were exposed to PBS, 62.5 μg/mL NAP, and 0.2% CHX for 3 days (5 min, three times per day). This short-term repeated treatment was to simulate the daily exposure to the mouth rinses.
For dead/live imaging, biofilms were stained with fluorescent LIVE/DEAD BacLight Bacterial Viability stain (Molecular Probes, Invitrogen) containing SYTO 9 and propidium iodide according to the manufacturer's instructions. The labeled biofilms were imaged with a DMIRE2 confocal laser scanning microscope (Leica, Wetzlar, Germany) equipped with a 60x oil immersion objective lens.
For extracellular polysaccharide (EPS) staining, the bacterial cell and the EPS were stained with SYTO 9 (Molecular Probes) and Alexa Fluor 647-labeled dextran conjugate (Molecular Probes) as described previously. The biofilms were captured with a Leica DMIRE2 confocal laser scanning microscope as in live/dead imaging.
All three-dimensional reconstructions of the biofilms were performed with Imaris 7.0.0 (Bitplane, Zürich, Switzerland). The quantification of the dead/live and EPS/bacteria volume ratio was, respectively, performed with Image-Pro Plus (Media Cybernetics, Silver Spring, MD, USA) and COMSTAT (http://www.image-analysis.dk).

Assay [3] has as its system S. sanguinis biofilm. Kind of assay: Reduction of 1-day-developed biofilm, crystal violet (MBRC). The class given is cell-based, Streptococcus sanguinis. The conditions noted are these: S. sanguinis 1-day-developed biofilm, 24 h, 90% or more reduction. As for the experimental part:
(§2) The effect of NAP on the 1-day-developed biofilm was examined by the minimum biofilm reduction concentration (MBRC). S. mutans, S. gordonii, or S. sanguinis (1 × 10^7CFU/mL, 200 μL/well) in BHIS was added to a 96-well polystyrene tissue culture plate. After anaerobic incubation at 37°C for 24 h, the supernatants were removed and washed with PBS three times without disrupting the integrity of biofilms. Fresh BHIS containing NAP ranging from 0.12 to 125 μg/mL were added to each well and incubated at 37°C for 24 h. The negative control was biofilms in BHIS without NAP. The biofilm was fixed, air-dried, stained, and quantified as described above.

Assay [4] has as its system S. sanguinis biofilm. Kind of assay: Biofilm formation inhibition, crystal violet (MBIC). The class given is cell-based, Streptococcus sanguinis. The conditions noted are these: 24 h, 90% or more inhibition of biofilm formation. How it is done: as §1
The test system of another assay is S. mutans biofilm. Kind of assay: Reduction of 1-day-developed biofilm, crystal violet (MBRC). The class given is cell-based, Streptococcus mutans. The conditions noted are these: S. mutans 1-day-developed biofilm, 24 h, 90% or more reduction. As for the experimental part:
as §2

The mark [5] stands for this setting: 62.5 μg/mL NAP compared to 0.2% CHX.

Each structure is given as a SMILES string.

`[H]/N=C(\N/C(=N/[H])NCCCCCCNC(=N)NC(=N)Nc1ccc(Cl)cc1)Nc1ccc(Cl)cc1` [CHX, Chlorhexidine]: the “total amount of streptococci” value in assay [1] is “significantly reduced the total amount of streptococci”. For the same compound, the MBIC was found to be 3.91 µg/mL in the assay on S. gordonii biofilm and 1.95 µg/mL with S. sanguinis biofilm [4]. The “structural integrity of multispecies biofilms” value in assay [2] (62.5 μg/mL NAP) was “disrupted the structural integrity of multispecies biofilms significantly”. In addition, the results for the MBRC with S. sanguinis biofilm [3] and in the assay on S. mutans biofilm were 3.91 µg/mL and 62.50 µg/mL, respectively.

Take `CC(=O)c1cc2c(o1)C(=O)c1ccccc1C2=O` [NAP, 2-acetylfuro-1,4-naphathoquinone]: in assay [1], the “total amount of streptococci” value is given as “significantly reduced the total amount of streptococci”; the multispecies biofilm composition entry was “inhibited S. mutans and S. sanguinis but increased the proportion of the commensal S. gordonii”. The MBIC in the assay with S. gordonii biofilm turned out to be 0.49 µg/mL. In assay [2] (setting [5]), the EPS/bacteria ratio result is reported as “equivalent” and the dead/live cell ratio result is given as “equivalent dead/live cell ratio”. For the same compound, the “bacteria within the biofilms (volume)” value in assay [2] (62.5 μg/mL NAP vs 0.2% CHX) is listed as “further reduced the bacteria within the oral streptococcal biofilms as compared to CHX”. In assay [2] (62.5 μg/mL NAP), the “structural integrity of multispecies biofilms” value is reported as “disrupted the structural integrity of multispecies biofilms significantly” and the “EPS production in the biofilm” value was “significantly inhibit EPS production”. For the same compound, in the assay on S. sanguinis biofilm [3], the MBRC worked out at 3.91 µg/mL. This compound displayed an MBIC in the assay with S. sanguinis biofilm [4] of 1.95 µg/mL. The compound also displayed an MBRC in the assay with S. mutans biofilm of 62.50 µg/mL.
